As a reminder, the IC50 is the concentration that gives 50% inhibition.

The target in this assay is recombinant human CETP protein (Homo sapiens (Human), UniProt P11597). Briefly: Test of CETP inhibition activity (in vitro, buffer-based). Type of assay: biochemical. The settings on record: [14C]-cholesteryl ester transfer from reconstituted HDL to acceptor lipoprotein, 37° C., 60 minutes, PBS buffer. As to the method:
Test of CETP Inhibition Activity (In Vitro, Buffer-Based)
(1) Preparation of Reconstituted HDL
Cholesterol (1.125 μmol), phosphatidyl choline (4.5 μmol) and [^14C]-labeled cholesteryl ester (2.0 μCi; 40 μl) were taken in a glass test tube and well mixed with a vortex, and dried under a nitrogen gas current so that it formed a thin film. The obtained mixture was dissolved in ethanol (200 μl), which was designated as Solution A. A PBS solution [a mixed solution of Na2HPO4 (30 mM), KH2PO4 (8.8 mM), NaCl (60 mM) and EDTA (pH 7.4; 0.67 mM); 4 ml] was taken in a tube and the reaction solution was vigorously stirred with a vortex under a nitrogen current. The above-described Solution A was gently injected into this mixture with a syringe and the reaction solution was vigorously stirred with a vortex for 5 minutes under a nitrogen current. Sodium cholate (200 mM; 0.38 ml) was added to the obtained mixture and the reaction solution was stirred for 2 minutes. ApoA-I protein (3 mg) was added to the obtained mixture and the reaction solution was stirred for 2 minutes. The obtained mixture was adjusted to 5 ml with the PBS solution and then dialyzed with the PBS solution. The obtained mixture was designated as the reconstituted HDL.
(2) Preparation of Acceptor Lipoprotein
NaBr was added to the plasma of a healthy person and the density of the mixture was adjusted to 1.019, and the mixture was subjected to density gradient centrifugation (40000 rpm, for 16 hours) to remove the fraction having a density of less than 1.019. NaBr was added to the obtained mixture and the density of the solution was adjusted to 1.063, and the solution was subjected to density gradient centrifugation (40000 rpm, 18 hours) to provide the fraction consisting of IDL (intermediate density lipoprotein) and LDL (1.019<density<1.063). The obtained fraction was dialyzed with the PBS solution. The obtained mixture was designated as the acceptor lipoprotein.
(3) Measurement of CETP Inhibition Activity
A recombinant human CETP protein (manufactured by Roar Biomedical Inc.; 4.5 ng), the acceptor lipoprotein described in (2) above (32.5 μg) and 5,5′-dithio-bis-(2-nitrobenzoic acid) (7 mM, 15 μl) were taken in a 96 well plate and the total amount of the mixture was adjusted to 48.5 μl with the PBS solution. The test compound [DMSO solution (concentration: 0.15, 0.5, 1.5, 5, 15, 50, 150 and 500 μM); 1.5 μl] was added to each well and the mixture was incubated in a thermostatic bath at 37° C. for 60 minutes. The reconstituted HDL (50 μl) described in (1) above was added to each well and the mixture was reacted in a thermostatic bath at 37° C. for 60 minutes. The 96 well plate was moved onto ice and a precipitation reagent [a mixed solution of magnesium chloride (60 mM) and 0.1% dextran sulfate[1/1(v/v)]; 15 μl] was added to each well, and then the mixture was allowed to stand on ice for 15 minutes. The reaction solution (80 μl) in each well was moved to a filter plate and centrifuged at 1500 rpm for 1 minute, and the filtrate which passed through the filter was designated as the HDL fraction and the radioactivity thereof was measured with a scintillation counter. The percentage decrease in radioactivity in the case where the test compound was added in comparison with that in case where the test compound was not added was designated as the percentage CETP inhibition. The IC50 value was calculated from the percentage CETP inhibition.

Structures can show the parent of a compound that is named as a salt.

Chain of recombinant human CETP protein (P11597 18-493): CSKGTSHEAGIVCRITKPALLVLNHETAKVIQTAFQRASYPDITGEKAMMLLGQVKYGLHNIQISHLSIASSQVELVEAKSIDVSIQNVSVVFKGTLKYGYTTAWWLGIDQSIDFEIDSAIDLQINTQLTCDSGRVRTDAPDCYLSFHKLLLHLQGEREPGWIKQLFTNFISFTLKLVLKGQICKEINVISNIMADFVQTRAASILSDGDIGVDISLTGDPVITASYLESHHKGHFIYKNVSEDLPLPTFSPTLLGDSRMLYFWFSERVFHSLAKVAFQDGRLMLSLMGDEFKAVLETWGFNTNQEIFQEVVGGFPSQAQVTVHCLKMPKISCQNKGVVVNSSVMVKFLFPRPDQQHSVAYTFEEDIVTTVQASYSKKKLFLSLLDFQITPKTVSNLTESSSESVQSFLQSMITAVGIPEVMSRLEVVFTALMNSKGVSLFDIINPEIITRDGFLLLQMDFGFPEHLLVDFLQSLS

For `CC1(C)Cc2nc(C3CCN(c4ncc(OCCCS(C)(=O)=O)cn4)CC3)c([C@@H](F)c3ccc(C(F)(F)F)cc3)c(C3CCC(F)(F)CC3)c2[C@@H](O)C1` [Example 18, (5S)-4-(4,4-Difluorocyclohexyl)-3-{(S)-fluoro[4-(trifluoromethyl)phenyl]methyl}-7,7-dimethyl-2-(1-{5-[3-(methylsulfonyl)propoxy]pyrimidin-2-yl}piperidin-4-yl)-5,6,7,8-tetrahydroquinolin-5-ol dihydrobromide], for the setting “dihydrobromide”, the IC50 was 18.9 nM. Regarding `CC(C)(O)CCOc1cnc(N2CCC(c3nc4c(c(C5CCC(F)(F)CC5)c3[C@@H](F)c3ccc(C(F)(F)F)cc3)[C@@H](O)CC(C)(C)C4)CC2)nc1` [Example 8, (5S)-4-(4,4-Difluorocyclohexyl)-3-{(S)-fluoro[4-(trifluoromethyl)phenyl]methyl}-2-{1-[5-(3-hydroxy-3-methylbutoxy)pyrimidin-2-yl]piperidin-4-yl}-7,7-dimethyl-5,6,7,8-tetrahydroquinolin-5-ol disuccinate], the IC50 (disuccinate) stood at 22.7 nM. For `CC1(C)Cc2nc(C3CCN(c4ncc(OCCCS(C)(=O)=O)cn4)CC3)c([C@@H](F)c3ccc(C(F)(F)F)cc3)c(C3CCC(F)(F)CC3)c2[C@@H](O)C1` [Example 17, (5S)-4-(4,4-Difluorocyclohexyl)-3-{(S)-fluoro[4-(trifluoromethyl)phenyl]methyl}-7,7-dimethyl-2-(1-{5-[3-(methylsulfonyl)propoxy]pyrimidin-2-yl}piperidin-4-yl)-5,6,7,8-tetrahydroquinolin-5-ol dihydrochloride], the IC50 (dihydrochloride) was 10 nM. On the same count and under the same terms, then `CC1(C)Cc2nc(C3CCN(c4ncc(OC[C@@H](O)CO)cn4)CC3)c([C@@H](F)c3ccc(C(F)(F)F)cc3)c(C3CCC(F)(F)CC3)c2[C@@H](O)C1` [Example 13, (5S)-4-(4,4-Difluorocyclohexyl)-2-[1-(5-{[(2S)-2,3-dihydroxypropyl]oxy}pyrimidin-2-yl)piperidin-4-yl]-3-{(S)-fluoro[4-(trifluoromethyl)phenyl]methyl}-7,7-dimethyl-5,6,7,8-tetrahydroquinolin-5-ol dihydrochloride], with 58.4 nM; and `CC1(C)Cc2nc(C3CCN(c4ncc(OC[C@H](O)CO)cn4)CC3)c([C@@H](F)c3ccc(C(F)(F)F)cc3)c(C3CCC(F)(F)CC3)c2[C@@H](O)C1` [Example 15, (5S)-4-(4,4-Difluorocyclohexyl)-2-[1-(5-{[(2R)-2,3-dihydroxypropyl]oxy}pyrimidin-2-yl)piperidin-4-yl]-3-{(S)-fluoro[4-(trifluoromethyl)phenyl]methyl}-7,7-dimethyl-5,6,7,8-tetrahydroquinolin-5-ol dihydrochloride], with 38 nM; and `CC1(C)Cc2nc(C3CCN(c4ncc(-c5cccc(C(=O)O)c5)cn4)CC3)c([C@@H](F)c3ccc(C(F)(F)F)cc3)c(C3CCC(F)(F)CC3)c2[C@@H](O)C1` [Example 20, (5S)-2-{1-[5-(3-Carboxyphenyl)pyrimidin-2-yl]piperidin-4-yl}-4-(4,4-difluorocyclohexyl)-3-{(S)-fluoro[4-(trifluoromethyl)phenyl]methyl}-7,7-dimethyl-5,6,7,8-tetrahydroquinolin-5-ol dihydrochloride], with 289 nM. In the case of `CC(C)(O)CCOc1cnc(N2CCC(c3nc4c(c(C5CCC(F)(F)CC5)c3[C@@H](F)c3ccc(C(F)(F)F)cc3)[C@@H](O)CC(C)(C)C4)CC2)nc1` [Example 11, (5S)-4-(4,4-Difluorocyclohexyl)-3-{(S)-fluoro[4-(trifluoromethyl)phenyl]methyl}-2-{1-[5-(3-hydroxy-3-methylbutoxy)pyrimidin-2-yl]piperidin-4-yl}-7,7-dimethyl-5,6,7,8-tetrahydroquinolin-5-ol hemifumarate], the IC50 came out at 28.9 nM. As to `CC1(C)Cc2nc(C3CCN(c4ncc(-c5cccc(C(=O)O)c5)cn4)CC3)c([C@@H](F)c3ccc(C(F)(F)F)cc3)c(C3CCC(F)(F)CC3)c2[C@@H](O)C1` [Example 21, (5S)-2-{1-[5-(3-Carboxyphenyl)pyrimidin-2-yl]piperidin-4-yl}-4-(4,4-difluorocyclohexyl)-3-{(S)-fluoro[4-(trifluoromethyl)phenyl]methyl}-7,7-dimethyl-5,6,7,8-tetrahydroquinolin-5-ol dihydrobromide], the IC50 (dihydrobromide) came out at 279 nM.

Regarding `CC1(C)Cc2nc(C3CCN(c4ncc(OC[C@@H](O)CO)cn4)CC3)c([C@@H](F)c3ccc(C(F)(F)F)cc3)c(C3CCC(F)(F)CC3)c2[C@@H](O)C1` [Example 14, (5S)-4-(4,4-Difluorocyclohexyl)-2-[1-(5-{[(2S)-2,3-dihydroxypropyl]oxy}pyrimidin-2-yl)piperidin-4-yl]-3-{(S)-fluoro[4-(trifluoromethyl)phenyl]methyl}-7,7-dimethyl-5,6,7,8-tetrahydroquinolin-5-ol dihydrobromide], the IC50 was determined as 38.2 nM. Consider `CC1(C)Cc2nc(C3CCN(c4ncc(OCC(CO)CO)cn4)CC3)c([C@@H](F)c3ccc(C(F)(F)F)cc3)c(C3CCC(F)(F)CC3)c2[C@@H](O)C1` [Example 1, (5S)-4-(4,4-Difluorocyclohexyl)-3-{(S)-fluoro[4-(trifluoromethyl)phenyl]methyl}-2-(1-{5-[3-hydroxy-2-(hydroxymethyl)propoxy]pyrimidin-2-yl}piperidin-4-yl)-7,7-dimethyl-5,6,7,8-tetrahydr oquinolin-5-ol dihydrochloride], for which the IC50 (dihydrochloride) is 35.2 nM.

As to `CC1(C)Cc2nc(C3CCN(c4ncc(OCCCS(C)(=O)=O)cn4)CC3)c([C@@H](F)c3ccc(C(F)(F)F)cc3)c(C3CCC(F)(F)CC3)c2[C@@H](O)C1` [Example 19, (5S)-4-(4,4-Difluorocyclohexyl)-3-{(S)-fluoro[4-(trifluoromethyl)phenyl]methyl}-7,7-dimethyl-2-(1-{5-[3-(methylsulfonyl)propoxy]pyrimidin-2-yl}piperidin-4-yl)-5,6,7,8-tetrahydroquinolin-5-ol methanesulfonate], the IC50 was found to be 22.9 nM. On the same count and under the same terms, then `CC1(C)Cc2nc(C3CCN(c4ncc(OC[C@H](O)CO)cn4)CC3)c([C@@H](F)c3ccc(C(F)(F)F)cc3)c(C3CCC(F)(F)CC3)c2[C@@H](O)C1` [Example 16, (5S)-4-(4,4-Difluorocyclohexyl)-2-[1-(5-{[(2R)-2,3-dihydroxypropyl]oxy}pyrimidin-2-yl)piperidin-4-yl]-3-{(S)-fluoro[4-(trifluoromethyl)phenyl]methyl}-7,7-dimethyl-5,6,7,8-tetrahydroquinolin-5-ol dihydrobromide], with 28.5 nM. As for `CC(C)(O)CCOc1cnc(N2CCC(c3nc4c(c(C5CCC(F)(F)CC5)c3[C@@H](F)c3ccc(C(F)(F)F)cc3)[C@@H](O)CC(C)(C)C4)CC2)nc1` [Example 10, (5S)-4-(4,4-Difluorocyclohexyl)-3-{(S)-fluoro[4-(trifluoromethyl)phenyl]methyl}-2-{1-[5-(3-hydroxy-3-methylbutoxy)pyrimidin-2-yl]piperidin-4-yl}-7,7-dimethyl-5,6,7,8-tetrahydroquinolin-5-ol maleate], the IC50 (maleate) came to 13 nM. As to `CC(C)(O)CCOc1cnc(N2CCC(c3nc4c(c(C5CCC(F)(F)CC5)c3[C@@H](F)c3ccc(C(F)(F)F)cc3)[C@@H](O)CC(C)(C)C4)CC2)nc1` [Example 9, (5S)-4-(4,4-Difluorocyclohexyl)-3-{(S)-fluoro[4-(trifluoromethyl)phenyl]methyl}-2-{1-[5-(3-hydroxy-3-methylbutoxy)pyrimidin-2-yl]piperidin-4-yl}-7,7-dimethyl-5,6,7,8-tetrahydroquinolin-5-ol benzenesulfonate], the IC50 turned out to be 11.6 nM.
